For two molecules, Activity and EC50 results are on record in ChEMBL document CHEMBL1833889, “Ursolic acid is a PPAR-α agonist that regulates hepatic lipid metabolism” (Bioorg Med Chem Lett, 2011).

Each structure is given as a SMILES string. The source made the active and inactive calls. No cut-off for these calls is given here.

For test [1], the system named is HepG2. Put plainly: Induction of BODIPY-labeled 4,4-difluoro-5-methyl-4-bora-3a,4a-diaza-s-indacene-3-dodecanoic acid uptake in human HepG2 cells after 1 min by FACS analysis. It counts as functional, cell-based. In general terms: A flow cytometer gives signals particle by particle.
Test [2] concerns the target T1, Peroxisome proliferator-activated receptor alpha (Homo sapiens, UniProt Q07869).
T1 sequence (Q07869 whole entry): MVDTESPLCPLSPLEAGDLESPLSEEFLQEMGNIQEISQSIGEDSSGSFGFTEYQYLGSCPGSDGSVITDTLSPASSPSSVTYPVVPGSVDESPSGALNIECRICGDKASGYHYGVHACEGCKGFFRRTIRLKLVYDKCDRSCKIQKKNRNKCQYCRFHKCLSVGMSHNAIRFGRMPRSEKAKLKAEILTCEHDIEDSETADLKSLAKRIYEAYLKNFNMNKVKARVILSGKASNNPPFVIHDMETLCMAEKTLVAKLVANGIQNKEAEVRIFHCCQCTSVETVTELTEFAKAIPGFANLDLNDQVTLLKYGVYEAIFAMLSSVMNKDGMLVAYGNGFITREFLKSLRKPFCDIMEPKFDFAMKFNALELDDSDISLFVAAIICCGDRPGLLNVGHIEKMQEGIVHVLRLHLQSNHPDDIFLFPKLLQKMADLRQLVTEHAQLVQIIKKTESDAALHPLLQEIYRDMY
Put plainly: (§1) Binding affinity to histidine-tagged human PPARalpha-LBD assessed as recruitment of co-activator peptide fluorescein-labeled PGC1alpha after 2 hrs by TR-FRET assay. For orientation: Time-resolved FRET reads energy transfer from a long-lived donor to a nearby acceptor.

In test [3] the target is T2, Peroxisome proliferator-activated receptor alpha (Homo sapiens) (UniProt Q07869).
T2 sequence (whole entry): T1 sequence (Q07869 whole entry)
Described as §1.

For test [4], the target named is T2, Peroxisome proliferator-activated receptor alpha (Homo sapiens). Put plainly: Binding affinity to histidine-tagged human PPARalpha-LBD by SPR analysis. (SPR reads the build-up and loss of mass on a sensor chip optically.)
Test [5] shares this target. Put plainly: Agonist activity at PPARalpha in human HepG2 cells assessed as down-regulation of FAS mRNA expression at 80 uM by quantitative PCR analysis. In kind it is functional, cell-based.
Test [6] has the same target. Put plainly: Agonist activity at PPARalpha in human HepG2 cells assessed as down-regulation of SCD1 mRNA expression at 80 uM by quantitative PCR analysis. It counts as functional, cell-based.
Test [7] addresses T1, Peroxisome proliferator-activated receptor alpha. Put plainly: (§2) Agonist activity at human recombinant PPARalpha expressed in HepG2 cells co-transfected with pGL3-PPRE3-TK-luc reporter assessed as […] after 24 hrs by luciferase based transactivation assay. In kind it is functional, cell-based.
The target in test [8] is T2, Peroxisome proliferator-activated receptor alpha (Homo sapiens). The description is as §2. In kind it is functional, cell-based.
Test [9] concerns HepG2. Put plainly: Hypolipidemic activity in human HepG2 cells assessed as decrease in triglyceride level at 5 uM relative to control. It counts as functional. Details: scale not given: the % may be the effect or the level left.
Test [10] has as its target T2, Peroxisome proliferator-activated receptor alpha (Homo sapiens). Put plainly: Agonist activity at PPARalpha in human HepG2 cells assessed as down-regulation of SREBP1c mRNA expression at 80 uM by quantitative PCR analysis. In kind it is functional, cell-based.
Test [11] has as its system HepG2. Put plainly: Hypolipidemic activity in human HepG2 cells assessed as decrease in triglyceride level at 80 uM relative to control. In kind it is functional. Details: scale not given: the % may be the effect or the level left.
Test [12] deals with T2, Peroxisome proliferator-activated receptor alpha (Homo sapiens). Put plainly: Agonist activity at human recombinant PPARalpha expressed in HepG2 cells assessed as binding of activated PPARalpha to the PPRE at 20 uM by ELISA-based assay. It counts as cell-based.
In test [13] the test system is HepG2. Put plainly: Hypolipidemic activity in human HepG2 cells assessed as decrease in triglyceride level at 20 uM relative to control. It counts as functional. Details: scale not given: the % may be the effect or the level left.
Test [14] addresses T2, Peroxisome proliferator-activated receptor alpha (Homo sapiens). Put plainly: Agonist activity at PPARalpha in human HepG2 cells assessed as up-regulation of PPARalpha mRNA expression at 5 uM by quantitative PCR analysis. It counts as functional, cell-based.
Test [15] concerns HepG2. Put plainly: Hypolipidemic activity in human HepG2 cells assessed as decrease in cholesterol level at 80 uM by fluorescence-based method relative to control. Set-up: scale not given: the % may be the effect or the level left. It counts as functional.
The target of test [16] is T2, Peroxisome proliferator-activated receptor alpha (Homo sapiens). Put plainly: Agonist activity at PPARalpha in human HepG2 cells assessed as up-regulation of FATP4 mRNA expression at 20 uM by quantitative PCR analysis. In kind it is functional, cell-based.
For test [17] the target is unchanged. Put plainly: Agonist activity at PPARalpha in human HepG2 cells assessed as up-regulation of ACOX mRNA level at 80 uM by quantitative PCR analysis. In kind it is functional, cell-based.
Test [18] shares this target. Put plainly: Agonist activity at PPARalpha in human HepG2 cells assessed as up-regulation of PPARalpha mRNA expression at 20 uM by quantitative PCR analysis. In kind it is functional, cell-based.
Test [19] concerns HepG2. Put plainly: Hypolipidemic activity in human HepG2 cells assessed as decrease in cholesterol level at 5 uM by fluorescence-based method relative to control. It counts as functional. Details: scale not given: the % may be the effect or the level left.
In test [20] the target is T2, Peroxisome proliferator-activated receptor alpha (Homo sapiens). Put plainly: Agonist activity at PPARalpha in human HepG2 cells assessed as up-regulation of FATP4 mRNA expression at 80 uM by quantitative PCR analysis. In kind it is functional, cell-based.
Test [21] has the same target. Put plainly: Agonist activity at PPARalpha in human HepG2 cells assessed as effect on LPL mRNA expression at 5 to 80 uM by quantitative PCR analysis. It counts as functional, cell-based.
For test [22] the target is unchanged. Put plainly: Agonist activity at human recombinant PPARalpha expressed in HepG2 cells co-transfected with pGL3-PPRE3-TK-luc reporter assessed as […] at 80 uM after 24 hrs by luciferase based transactivation assay. It counts as functional, cell-based.
Test [23] has the same target. Put plainly: Agonist activity at PPARalpha in human HepG2 cells assessed as up-regulation of PPARalpha mRNA expression at 80 uM by quantitative PCR analysis. In kind it is functional, cell-based.
Test [24] has as its system HepG2. Put plainly: Hypolipidemic activity in human HepG2 cells assessed as decrease in cholesterol level at 20 uM by fluorescence-based method relative to control. In kind it is functional. Set-up: scale not given: the % may be the effect or the level left.
The target of test [25] is T2, Peroxisome proliferator-activated receptor alpha (Homo sapiens). Put plainly: Agonist activity at PPARalpha in human HepG2 cells assessed as up-regulation of carnitine palmitoyl transferase mRNA expression at 80 uM by quantitative PCR analysis relative to control. In kind it is functional, cell-based.
Test [26] shares this target. Put plainly: Agonist activity at PPARalpha in human HepG2 cells assessed as up-regulation of acyl-CoA synthetase mRNA expression at 5 to 80 uM by quantitative PCR analysis. It counts as functional, cell-based.
The test system of test [27] is HepG2. Put plainly: Induction of BODIPY-labeled 4,4-difluoro-5-methyl-4-bora-3a,4a-diaza-s-indacene-3-dodecanoic acid uptake in human HepG2 cells at 80 uM after 1 min by FACS analysis. In kind it is functional.

Regarding `CC(C)(Oc1ccc(C(=O)c2ccc(Cl)cc2)cc1)C(=O)O` [FENOFIBRIC ACID], the Activity result (with HepG2 [1]; in test [3]) was “Dose-dependent effect” in each case. Also, the EC50 (as a rule, the concentration giving half of the maximal effect) in test [2] was 4.5 µM. Also, the outcome in test [4] was Active.

On to `C[C@H]1[C@H](C)CC[C@]2(C(=O)O)CC[C@]3(C)C(=CC[C@@H]4[C@@]5(C)CC[C@H](O)C(C)(C)[C@@H]5CC[C@]43C)[C@H]12` [URSOLIC ACID], for which the Activity in test [5] was 23%; in [6], 15%; in test [8] it was “Dose-dependent effect”; in the test with HepG2 [9], 23.5%; in [10], 28%; with HepG2 [11] it was 44.7%. The Activity turned out to be 46% in test [12]; 38.8% in the test on HepG2 [13]; 134% in [14]; 26.5% in the test with HepG2 [15]; 185% in test [16]; 24% in test [17]. The Activity in test [18] came out at 156%; with HepG2 [19], 11%; in test [20], 259%; in test [22] it was 214%; in [23] it was 195%; in the test on HepG2 [24], 18.9%. Moreover, the Activity in test [25] came out at 1020%; in the test with HepG2 [27], 108.7%. The EC50 in test [7] was determined as 41.3 µM. For the same molecule, the outcome in test [21], in [3] and in test [4] was inactive. In test [26], the outcome was Active.
